In the METLIN SMRT retention time set (Domingo-Almenara et al. 2019) one finds RP-LC retention time data, which are given here for 58 compounds.

Each structure is given as a SMILES string.

The data set can be described thus: gradient 5% acetonitrile 3 min, to 50% in 2 min, to 85% in 15 min, held 3 min, 100 µL/min. As to conditions: column: Zorbax Extend-C18 2.1 x 50 mm; eluents: water / acetonitrile, 0.1% formic acid. In a few lines: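 Each retention time is based on an adduct peak selected computationally and verified by manual inspection. Measurements used HPLC–quadrupole time-of-flight mass spectrometry in positive and negative ionization mode on mixtures of ~100 pure standards. Chromatography ran on a Zorbax Extend-C18 column (2.1 × 50 mm, 1.8 μm) at 100 μL/min with water and acetonitrile, each containing 0.1% formic acid, and dead and dwell volumes of 40 μL and 900 μL.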
As to `Cc1sc2ccn(Cc3ccc(F)cc3)c(=O)c2c1C(=O)NCCN1CCN(C)CC1`, the RP-LC retention time amounted to 591 s.

In turn, `COc1ccc(NC(=O)Cn2nc3cc(-c4ccc(OC)cc4)nc(C)n3c2=O)cc1` came in with an RP-LC retention time of 872 s.

In the case of `C=CCN(CC=C)c1nc(-c2ccc(Cl)cc2Cl)nc2ccccc12`, the RP-LC retention time stood at 933 s.

For the compound `CC(C)NC(=O)N1CCCC(c2cccc(C(=O)NCc3cccc(C(F)(F)F)c3)c2)C1` (stereo not drawn), the RP-LC retention time turned out to be 958 s.

In turn, `COc1cc(CN2C[C@@H]3C(=O)N(CCc4ccccc4)C(=O)[C@@H]3C2)cc(OC)c1` registered an RP-LC retention time of 753 s.

Compound `O=C(CSc1nc2ncccc2[nH]1)N1CCN(c2ccc(F)cc2)CC1` gave an RP-LC retention time of 649 s.

With `COC(=O)c1cnn(-c2ccc(C(=O)N3CCCC3)cc2)c1N`, the RP-LC retention time was found to be 654 s.

Take `O=C(NCC1CC1)c1nnn(Cc2ccc(Cl)cc2)c1-n1cccc1`: the RP-LC retention time amounted to 1010 s.

The compound `Cc1ccc(N2C(=O)CN(S(C)(=O)=O)CC2(C)C(=O)NCc2ccc(Cl)cc2)c(C)c1` (stereo not drawn) gave an RP-LC retention time of 903 s.

Regarding `Cn1nc(C(=O)N2CCCC2)c2c1CCN(C(=O)CCC(=O)NCCN1CCCCCC1)C2`, the RP-LC retention time stood at 586 s.

Turning to `CCN(CCO)CCCOc1ccc2c(Nc3cc(CC(=O)Nc4cccc(F)c4)[nH]n3)ncnc2c1`, the RP-LC retention time stood at 611 s.

`O=C(Nc1nnc(C2CC(=O)N(c3ccccc3)C2)o1)c1ccccc1Cl` (stereo not drawn) came in with an RP-LC retention time of 807 s.

In the case of `CN(C)c1cc(C(N)=O)c2ccccc2n1`, the RP-LC retention time came to 694 s.

Turning to `NC(=O)C1CCN(S(=O)(=O)c2ccc3[nH]cc(C(=O)O)c(=O)c3c2)CC1`, the RP-LC retention time worked out at 596 s.

In the case of `CC1=C(c2ccccc2)S(=O)(=O)N=C1N1CCCN(C(=O)NCCC(C)C)CC1`, the RP-LC retention time worked out at 818 s.

The compound `O=C(NC1CC1)C1CCN(c2nc3ccc(-c4ccsc4)nc3s2)CC1` registered an RP-LC retention time of 809 s.

Consider `COc1ccc(OC)c(NC(=O)Cn2c(N3CCCC3)nc(C)cc2=O)c1`, for which the RP-LC retention time came to 654 s.

The compound `COc1cc(C(c2nnnn2C(C)(C)C)N2CCN(c3ccccn3)CC2)cc(OC)c1OC` (stereo not drawn) yielded an RP-LC retention time of 578 s.

`O=C1c2cccc3cccc(c23)C(=O)N1c1cccnc1` displayed an RP-LC retention time of 631 s.

`COc1ccc(-c2cn3c(CC(=O)NC4CCCCCC4)csc3n2)cc1OC` registered an RP-LC retention time of 729 s.

The compound `COc1ccc(CN2N=C(C(=O)N3CCOCC3)S(=O)(=O)c3ccccc32)cc1F` registered an RP-LC retention time of 807 s.

Compound `Cc1noc(/C=C\c2ccc(S(=O)(=O)N3CCCCC3C)cc2)c1NC(=O)C1CC1` (stereo not drawn) had an RP-LC retention time of 938 s.

On to `COCCN(Cc1ccc(C(C)C)cc1)Cc1cc(=O)n2cccc(C)c2n1`, for which the RP-LC retention time was determined as 728 s.

`CN(Cc1ccccc1)C(=O)CCSC1CCc2ccccc2NC1=O` (stereo not drawn) gave an RP-LC retention time of 798 s.

`Cc1cccc(CNC(=O)C2=C3CCCN3c3ccccc3S2(=O)=O)c1` displayed an RP-LC retention time of 856 s.

The compound `Cc1ccc(N2C=C(C(=O)N3CCCC3)S(=O)(=O)c3ccc(F)cc32)cc1` had an RP-LC retention time of 799 s.

`COc1ccccc1N1CCN(c2ncc3c(n2)CCN(Cc2cccc(F)c2)C3)CC1` came in with an RP-LC retention time of 808 s.

`COc1ccc(NC(=O)c2cnc(N3CCN(c4ccccc4OC)CC3)nc2N)cc1`: the RP-LC retention time amounted to 737 s.

`CCOc1cc(=O)c(C(=O)N2CCN(c3ncccn3)CC2)nn1-c1ccc(C)cc1` showed an RP-LC retention time of 751 s.

`CN(C)C(=O)C1CN(C(=O)c2cccc(Br)c2)CC12CCOCC2` (stereo not drawn) gave an RP-LC retention time of 619 s.

`COc1ccc(-n2ccc(=O)c(-c3nc(-c4ccc(C)cc4)no3)n2)cc1` returned an RP-LC retention time of 932 s.

For `Cc1cc(-c2nnc(C3CC3)o2)c(C)n1CC(=O)NCc1ccc(F)cc1F`, the RP-LC retention time worked out at 811 s.

As to `O=S(=O)(Nc1cccc(-c2cn3cccnc3n2)c1)c1ccc(Br)cc1`, the RP-LC retention time worked out at 769 s.

Regarding `CNC(=O)c1cn2ccnc(-c3ccc(C)cc3)c2n1`, the RP-LC retention time stood at 755 s.

For the compound `CC(C)Oc1ccc(-c2noc(Cn3c(=O)n(-c4ccc(Cl)cc4)c(=O)c4sccc43)n2)cc1`, the RP-LC retention time stood at 1140 s.

`Cc1ccc2c(c1)OCC(=O)N2Cc1nc(-c2cccc(C(F)(F)F)c2)no1`: the RP-LC retention time amounted to 919 s.

The compound `CCOC(=O)C1=C(CN2CCN(c3ccccn3)CC2)NC(=O)NC1c1cccc(OC)c1OC` (stereo not drawn) came in with an RP-LC retention time of 615 s.

For the compound `Cc1nn(-c2ccccc2)c(C)c1S(=O)(=O)N1CCC(C(=O)Nc2ccc(C(C)C)cc2)CC1`, the RP-LC retention time was found to be 1100 s.

Compound `O=C(Nc1ccc(Cl)cc1)C1CCN(C(=O)c2ncn3c2COC(c2ccccc2)C3)CC1` (stereo not drawn) had an RP-LC retention time of 859 s.

With `CC(C)c1nc(C2CN(C(=O)Nc3ccc(Cl)cc3)C2)n(C)n1`, the RP-LC retention time was 704 s.

Consider `CCCc1noc(-c2ccc(-n3cnc(C(=O)N4CCCC4)c3)nc2)n1`, for which the RP-LC retention time was 816 s.

Regarding `CCOc1cccc(CNC(=O)C2CCN(Cc3cn(C)c4ccccc34)CC2)c1`, the RP-LC retention time came to 686 s.

Compound `CCN1C(=O)C(C)(C(=O)Nc2ccc(OC)c(Cl)c2)Oc2cccnc21` (stereo not drawn) registered an RP-LC retention time of 895 s.

In the case of `O=C(CN1C(=O)CCc2cc(Br)ccc21)N1CCN(c2ccccc2F)CC1`, the RP-LC retention time worked out at 951 s.

`CCN(C(=O)Cc1c(C(=O)O)c(C)cn1C)c1ccccc1` showed an RP-LC retention time of 722 s.

Compound `O=C1NCCCCCCN(C(=O)c2cccs2)[C@H]2CCCC[C@@H]12` displayed an RP-LC retention time of 838 s.

Take `CCn1cc(-c2nc(-c3cc(OC)cc(OC)c3)no2)c(=O)c2cc(F)c(N3CCOCC3)cc21`: the RP-LC retention time was 957 s.

As for `CCC(C(=O)NCCc1c[nH]c2ccc(OC)cc12)n1c2ccccc2c2cnn(C)c(=O)c21` (stereo not drawn), the RP-LC retention time was determined as 890 s.

Turning to `Cc1ccc(Nc2c(-c3ccc(N(C)C)cc3)nc3ccc(C)cn23)cc1`, the RP-LC retention time worked out at 839 s.

`Cc1oc(C2CCN(S(=O)(=O)c3ccc(C#N)cc3)CC2)nc1C(=O)N1CCOCC1` showed an RP-LC retention time of 760 s.

Consider `Cn1cc(C(=O)Nc2ccc3c(c2)OCCO3)c2cccnc21`, for which the RP-LC retention time was 727 s.

`CCCN1C(=O)C(NC(=O)CCc2ccccc2)(C(F)(F)F)C(C(=O)OC)=C1C` (stereo not drawn) showed an RP-LC retention time of 916 s.

The compound `O=C(NCc1cccnc1)C1CCN(Cc2cc3ccccc3n2Cc2ccccc2Cl)CC1` returned an RP-LC retention time of 630 s.

The compound `O=S(=O)(c1ccc(OC(F)(F)F)cc1)N1CCC(c2nnc(C(F)(F)F)o2)CC1` had an RP-LC retention time of 1000 s.

Turning to `O=C(CSc1nnc2c3sc(N4CCCC4)nc3ncn12)N1CCN(c2ccc(F)cc2)CC1`, the RP-LC retention time came out at 834 s.

In the case of `CCCn1ccc2sc(C)c(C(=O)NCc3ccccc3OC)c2c1=O`, the RP-LC retention time was determined as 896 s.

In the case of `CCOC(=O)Cc1ccc(NC(=O)NC2CCN(c3ccccc3)C2=O)cc1` (stereo not drawn), the RP-LC retention time is 742 s.

For `COCCNC(=O)c1ccccc1Sc1nccnc1Oc1ccccc1`, the RP-LC retention time was found to be 852 s.
